Source: patent US4775743A, “Peptide derivatives” (Green Cross Corporation, priority 1985, dated 1988)
Square brackets hold non-standard residues; d marks the D form. Ends that are not written are not given here. Peptide text beside a SMILES is read from it. * marks the point of attachment. Desaminotyrosyl = O=C(CCc1ccc(O)cc1)*; Hyp = O=C(O)[C@@H]1C[C@@H](O)CN1

Columns and labels:
[1] = test system: rat PRP (platelet-rich plasma) / rat washed platelets; assay: Platelet agglutination inhibitory action (in vitro); type: cell-based; settings: agglutination induced by arachidonic acid (1 mM), thrombin (0.8 U/ml) or Ca ionophore A-23187 (4 μM), FIGS. 1, 2 and 3
Experimental: Blood samples were taken from the abdominal artery of rats by means of a syringe containing 3.8% solution of sodium citrate, and the mixture (sodium citrate:blood=1:9) was centrifuged for ten minutes, giving platelet-rich plasma (PRP).
PRP thus collected was placed in cuvettes and kept in an incubator held at 37° C. for two minutes. Solutions of the compound obtained in Example 1 with different concentrations (diluted with a solution of 1.5 mM EDTA in a mixture of Tris-HCl buffer and sodium chloride solution (1:5)) were added, the resulting mixture in each cuvette was incubated for three minutes, and Ca ionophore A-23187 (final concentration: 4 μM), arachidonic acid (1 mM) or thrombin (0.8 U/ml) was added to measure the degree of agglutination. A solution of heparin sodium was used in place of sodium citrate when arachidonic acid was employed as agglutination inducer.

[2] = background statement on the prior-art compound; cited from earlier work

| Compound | strength of inhibitory effect against platelet agglutination relative to compound P (control) [1] | half-life in the blood [2] |
| --- | --- | --- |
| C[C@H](NC(=O)CNC(=O)[C@@H]1C[C@@H](O)CN1C(=O)[C@@H]1CCCN1C(=O)CCc1ccc(O)cc1)C(=O)NCC(=O)O [HP, N-3-(4-hydroxyphenyl)propionyl-L-prolyl-L-hydroxyprolyl-glycyl-L-alanyl-glycine] (Desaminotyrosyl-P[Hyp]GAG-OH) | about ten |  |
| P[Hyp]GAG [Compound P] |  | about ten |
